Data as given in patent US5972946A, “Acetamide derivative, process for preparing the same, and a pharmaceutical composition containing the same” (Dainippon Pharmaceutical Co., Ltd., priority 1995, dated 1999).

Tests used:
[1] = Light and dark box test (anti-anxiety effect); format: in vivo, mouse (Std-ddY, male); conditions: Mus musculus, 0.5 h; oral, 30 min before test; mice; p<0.05 vs vehicle; read-out: Anti-anxiety effect MED (minimum effective dose)
Source text: Experiment 2: Light and dark box test (anti-anxiety effect)
Anti-anxiety effect of test compounds was examined in a box with light and dark compartments according to the method of Crawley, J. and Goodwin, F. K. [cf. Pharmacol. Biochem. Behav. 13, 167-170 (1980)] with slight modification.
Light and dark box test is a useful, simple and handy method for behaviorally and pharmacologically examining anti-anxiety effect of the drugs, by utilizing the habit of rodents such as mice and rats, etc. which prefer to stay in a dark place, and regarding as positive drug effect the increase of the relative stay of the animals in the light compartment which is an uncomfortable place for the animals.
Light and dark box test was carried out using the test box device (35×15×17 cm) which comprises: a light compartment (20×15×17 cm) consisting of transparent acrylic plates and highly illuminated by an incandescent lamp (1,700 lux); a dark compartment (15×15×17 cm) being made of black acrylic plates connected to the light compartment; and at the boundary of compartments, an opening (4.4×5 cm) in which mice can go through freely between two compartments.
Male mice of Std-ddY strain weighing 25-30 g were used in a group of 10. Each trial was started by placing a mouse in the center of the light compartment 30 minutes after oral administration of a test compound, and the time spent by the mouse in the light compartment during a 5 minute observation period was measured, and the rate of the stay of mice in the light compartment to the whole time spent in the experiment was calculated. The increasing rate of the relative stay of the test compound to that of the vehicle control group was yielded, based on the rate of the stay of mice in the light compartment.
The anti-anxiety effect of the test compound was represented by the minimum effectivetive dose (MED) at which the increasing rate of the relative stay was regarded statistically as significant (Williams-Wilcoxon's test, p<0.05).

[2] = Collagen-induced arthritis inhibitory test 1; format: in vivo, mouse (DBA/1j, male); conditions: for severity of arthritis (arthritic score) versus control group / onset of arthritis delayed until (days after the booster immunization): 10 mg/kg oral daily; for onset of arthritis delayed until (days after the booster immunization): control onset on 28th day; for effect on collagen-induced arthritis inhibitory test (conclusion): experiment 4, 10 mg/kg oral
Protocol: Experiment 4: Collagen-induced arthritis inhibitory test 1
Collagen-induced arthritis inhibitory test is an experimental model for rheumatoid arthritis reported by Trethan, D. E. et al. [cf. […] J. Immunol., 140, 78-83 (1988)].
Collagen-induced arthritis inhibitory test was carried out according to Kakimoto, K. et al. (cf. above reference of Kakimoto, K. et al.) with slight modification. Solubilized bovine cartilage type II collagen (product of Elastine Products, U.S.A.) was emulsified in complete Freund's adjuvant (product of DIFCO Lab., U.S.A.). Male mice of DBA/1j strain (6 week-old; product of Nippon Charles River, Japan) were immunized by injection at the base of the tail with 150 μg of the emulsified collagen. After twenty one days from the immunization, arthritis was induced by a booster immunization of 150 μg of the emulsified collagen prepared in the same manner as above at the base of the tail again. A test compound was orally administered daily at the dose of 10 mg/kg from the first immunization. Mice were observed daily 5 days after the booster immunization for the onset of arthritis, and an arthritic score was derived by grading the severity of involvement of each paw five scales (0-4) according to the method of Wood, F. D. et al. [cf. Int. Arch. Allergy Appl. The severity of arthritis was estimated by the sum of the scores of all 4 paws, and the onset of the disease was determined when score 1 was observed.

[3] = target: peripheral (ω3) benzodiazepine (BZ) receptor (Rattus norvegicus, UniProt P16257); test: BZω3 (peripheral-type) benzodiazepine receptor binding assay
Protocol: Experiment 1: Central (ω1, ω2) and peripheral (ω3) benzodiazepine (BZ) receptor binding assays
BZω1 and BZω2 receptor binding assays were carried out according to the method of Stephens, D. N. et al. [cf.
Receptor membrane fractions for ω1, ω2 and ω3 were prepared from the cerebellum (ω1), spinal cord (ω1) or kidney (ω3) in 7-8 week old male rats of Wistar strain by the procedure described below.
After the cerebellum or spinal cord was homogenized with 20 volumes of ice-cold 50 mM Tris-citrate buffer (pH 7.1), the homogenate was centrifuged for 15 minutes at 40,000 g. The pellet obtained was washed 4 times by the same procedure, frozen and stored for 24 hours at -60° C. The resulting pellet, after being thawed, washed with the buffer and centrifuged, was suspended in the buffer I for the binding assay (50 mM Tris-HCl buffer containing 120 mM NaCl, 5 mM KCl, 2 mM CaCl2 and 1 mM MgCl2 ; pH 7.4) and the suspension thus obtained (containing 1 g wet tissue/40 ml) was used for the BZω1 and BZω2 receptor binding assays. On the other hand, the kidney was homogenized with 20 volumes of the ice-cold buffer II for the binding assay (50 mM Na--K phosphate buffer containing 100 mM NaCl; pH 7.4), filtered through 4 sheets of gauze, and centrifuged for 20 minutes at 40,000 g. The pellet obtained was suspended in the buffer II and the suspension (containing 1 g wet tissue/100 ml) was used for the binding assay as BZω3 receptor membrane source.
Flumazenil (final concentration: 0.3 nM for (ω1 and 1 nM for ω2) and flunitrazepam (final concentration: 10 μM) were used for the BZω1 or BZω2 receptor binding assays as the isotope-labeled and unlabeled ligands, respectively. For the BZω3 receptor binding assay, [^3 H] 4'-chlorodiazepam (7-chloro-1,3-dihydro-1-methyl-5-(4-chlorophenyl)-2H-1,4-benzodiazepin-2-one) (final concentration: 0.5 nM) and diazepam (final concentration: 100 μM) were used as the isotope-labeled and unlabeled ligands, respectively. Incubation was performed for 30 minutes at 37° C. in the BZω1 or BZω2 receptor binding assays, and for 150 minutes at 0° C. in the BZω3 receptor binding assay. The BZω1 or BZω2 receptor binding assays were carried out in the presence of bicuculline (final concentration: 100 μM).
The binding assay was performed by the following procedure. After adding each test compound at certain known concentrations, a [^3 H] ligand and the buffer I or II to each test tube, each assay was started by addition of membrane preparation (total volume of 1 ml). After incubation, the assay was terminated by filtration with suction through a Whatman GF/B glass fiber filter using a cell harvester (Brandel, USA). The filters were rapidly washed 3 times with 5 ml of ice-cold 50 mM Tris-HCl buffer (pH 7.7) for ω1 and ω2, or the buffer II forω3, and transferred to scintillation vials containing 10 ml liquid scintillation cocktail (ACS-II, Amersham, USA). After a few hours, retained radioactivity was counted by a liquid scintillation spectrometer. Specific binding of [^3 H] ligands was calculated as the difference between amounts of radioactivity bound in the presence and absence of excess unlabeled ligands.

[4] = known from literature; cited from earlier work
[5] = Collagen-induced arthritis inhibitory test 2; format: in vivo, mouse (DBA/1j, female); conditions: for effect on collagen-induced arthritis inhibitory test (conclusion): experiment 5, 10 mg/kg oral; for suppression of arthritis as compared with control: Example 165: at least until 34th day
Protocol: Experiment 5: Collagen-induced arthritis inhibitory test 2
Collagen-induced arthritis inhibitory test was carried out according to Kakimoto, K. et al. (cf. above reference of Kakimoto, K. et al.) with slight modification. Type II collagen from bovine joints (product of the Collagen Research Center, Japan) was emulsified in complete Freund's adjuvant (product of DIFCO Lab., U.S.A.). Female mice of DBA/1j strain (product of Nippon Charles River, Japan) were immunized by injection at the base of the tail with 150 μg of the emulsified collagen. After twenty one days from the immunization, arthritis was induced by a booster immunization of 150 μg of the emulsified collagen prepared in the same manner as above at the base of the tail again. Test compounds were administered orally at a dose of 10 mg/kg on 5 consecutive days in a week for 8 weeks, beginning from the day before the immunization. Mice were monitored visually for arthritis once a week beginning from the day of the booster immunization. The severity of arthritis was estimated by the sum of the scores of all 4 paws.

[6] = system: Bacillus subtilis; conditions: Pharmazie, 43, 537-538 (1988); cited from earlier work

Compound	severity of arthritis (arthritic score) versus control group [2]	onset of arthritis delayed until (days after the booster immunization) [2] [days]	effect on collagen-induced arthritis inhibitory test (conclusion) [2]	IC50 [3] [nM]	effect in isoniazid-induced clonic convulsion test (known drugs) [4]	effect on collagen-induced arthritis inhibitory test (conclusion) [5]	also measured
CCCN(CCC)C(=O)COc1nc(-c2ccccc2)nc(C)c1C [Example 136, 2-(5,6-dimethyl-2-phenyl-4-pyrimidinyloxy)-N,N-dipropylacetamide]	much lower than the control group	34	potent effect	0.34	–	–	minimal effective dose [1]: 0.3 mg/kg
CC(=O)[C@H]1CC[C@H]2[C@@H]3CC[C@H]4C[C@H](O)CC[C@]4(C)[C@H]3CC[C@]12C [allopregnanolone]	–	–	–	–	positive effect	–	–
CN1C(=O)CN=C(c2ccccc2)c2cc(Cl)ccc21 [diazepam]	–	–	–	–	positive effect	–	–
CCCN(CCC)C(=O)CNc1nc(-c2ccc(C(F)(F)F)cc2)nc(C)c1C [Example 6, 2-[5,6-Dimethyl-2-(4-trifluoromethylphenyl)-4-pyrimidinylamino]-N,N-dipropylacetamide]	–	–	–	0.23	–	potent effect	minimal effective dose [1]: 0.3 mg/kg; onset of arthritis delayed until (days after the booster immunization) ([5]; 10 mg/kg oral, 5 consecutive days a week for 8 weeks): 21 days; severity of arthritis versus control group ([5]; 10 mg/kg oral, 5 days a week, at least until day 34, last day of the experiment): much lower than the control group
CCN(C(=O)COc1nc(-c2ccc(N)cc2)nc(C)c1C)c1ccccc1 [Example 165, 2-[2-(4-aminophenyl)-5,6-dimethyl-4-pyrimidinyloxy]-N-ethyl-N-phenylacetamide]	–	–	–	5.07	–	potent effect	suppression of arthritis as compared with control ([5]; 10 mg/kg oral, 5 days a week): markedly suppressed the arthritis as compared with control group
CCCN(CCC)C(=O)CNc1cc(-c2ccccc2)nc(-c2ccccc2)n1 [Example 93, 2-(2,6-Diphenyl-4-pyrimidinylamino)-N,N-dipropylacetamide]	much lower than the control group	40	potent effect	4.1	–	–	–
C[C@]12CC[C@@H](O)C[C@@H]1CC[C@@H]1[C@@H]2CC[C@]2(C)[C@@H](C(=O)CO)CC[C@@H]12 [THDOC, allotetrahydrodeoxycorticosterone]	–	–	–	–	positive effect	–	–
CCCN(C(=O)COc1nc(-c2ccccc2)nc(C)c1C)c1ccccc1 [Example 178, 2-(5,6-Dimethyl-2-phenyl-4-pyrimidinyloxy)-N-phenyl-N-propylacetamide]	–	–	–	0.57	–	less potent effect	suppression of arthritis as compared with control ([5]; 10 mg/kg oral, 5 days a week): the arthritis was suppressed as compared with the control
CC(=O)c1c(C)nc(-c2ccccc2)nc1SCC(=O)Nc1ccc(Cl)cc1 [2-(5-acetyl-6-methyl-2-phenyl-4-pyrimidinylthio)-N-(4-chlorophenyl)acetamide]	–	–	–	–	–	–	antibacterial activity against Bacillus subtilis [6]: shows antibacterial activity against Bacillus subtilis
Cc1nc(-c2ccc(Cl)cc2)nc(OCC(=O)N(C)c2ccccc2)c1C [Example 144, 2-[2-(4-Chlorophenyl)-5,6-dimethyl-4-pyrimidinyloxy]-N-methyl-N-phenylacetamide]	much lower than the control group	37	potent effect	0.31	–	–	–
